# Assays:
# [1] = system: ENR+CD organoids (ISC to Paneth cell differentiation); assay: Secondary (validation) screen: LYZ.NS basal lysozyme secretion, 2.5-D 384-well ENR+CD organoids; type: cell-based, mouse; settings: for Dose.FC.LYZ.NS: 6-day ENR+CD, vs ENR+CD+DMSO
# Method: (§1) Drugs were tested at a narrowed dose range around each treatment's identified optimal dose from the primary screen (4× below, 2× above and below).
# (§2) High-throughput screening.
# (§3) Secondary lysozyme secretion assay screen. Confirmatory secondary screening with primary hits was performed using the above 384-well plate method. The screen was conducted with 4-plate replicates with a base media of ENR+CD. Media was supplemented with compound at day 0 and day 3 (n=8 well replicates per dose) at four different doses: two-fold above, two-fold below, and four-fold below the optimal final dose for each respective treatment. Additionally, each plate carried a large number of ENR+DMSO or ENR+CD+DMSO (vehicle) control wells (n=100 for ATP, and n=25 for LYZ.NS and LYZ.S) for robust normalization. ATP, non-stimulated lysozyme activity and CCh-stimulated lysozyme activity was again measured and the collected data was again processed in a custom R-script, per primary screen with slight modification. Values were log10 transformed, and a plate-wise FC was calculated for each well based on the median value of ENR+CD+DMSO (vehicle) control wells to normalize plate to plate variability.
# [2] = system: ENR+CD organoids (ISC to Paneth cell differentiation); assay: Secondary (validation) screen: LYZ.S CCh-stimulated lysozyme secretion, 2.5-D 384-well ENR+CD organoids; type: cell-based, mouse; settings: 6-day ENR+CD, vs ENR+CD+DMSO
# Method: as §1, §2, §3
# [3] = system: ENR+CD organoids; assay: Primary screen: ATP (CellTiter-Glo 3D, CTG) cell number/viability, 2.5-D 384-well ENR+CD organoids; settings: primary screen;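 note: compounds given at plating and again on day 3 over a 6-day differentiation from ENR+CV stem-cell-enriched precursors, ATP measured on day 6, plate median as control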
# [4] = system: ENR+CD organoids (ISC to Paneth cell differentiation); assay: Primary screen: basal (non-stimulated) lysozyme secretion LYZ.NS, 2.5-D 384-well ENR+CD organoid differentiation; type: cell-based, mouse; settings: primary screen; for Z.LYZ.NS: standard z score
# From the text: as §2
# [5] = system: ENR+CD organoids; assay: Secondary (validation) screen: ATP (CTG) assay, 2.5-D 384-well ENR+CD organoids; type: cell-based, mouse; settings: 6-day ENR+CD, vs ENR+CD+DMSO
# Method: as §1, §2, §3
# [6] = system: ENR+CD organoids (ISC to Paneth cell differentiation); assay: Primary screen: CCh-stimulated lysozyme secretion LYZ.S, 2.5-D 384-well ENR+CD organoid differentiation; type: cell-based, mouse; settings: primary screen
# From the text: as §2
# [7] = dose 0.08 uM, FC vs plate median
# [8] = dose 0.40 uM, FC vs plate median
# [9] = dose 2.00 uM, FC vs plate median
# [10] = dose 10.00 uM, FC vs plate median
# [11] = dose 0.08 uM, FC relative to plate median
# [12] = dose 0.40 uM, FC relative to plate median
# [13] = dose 2.00 uM, FC relative to plate median
# [14] = dose 10.00 uM, FC relative to plate median
compound,measurement,setting,value
"Cc1cn(-c2cc(NC(=O)c3ccc(C)c(Nc4nccc(-c5cccnc5)n4)c3)cc(C(F)(F)F)c2)cn1 [Nilotinib (AMN-107), Nilotinib, reference compound]",Dose.FC.LYZ.NS,[1]; 0.10 uM,0.092 log2 fold change
same,Dose.FC.LYZ.NS,[1]; 0.20 uM,0.161 log2 fold change
same,Dose.FC.LYZ.NS,[1]; 0.40 uM,0.101 log2 fold change
same,Dose.FC.LYZ.NS,[1]; 0.80 uM,0.165 log2 fold change
same,validated doses in secondary screen (SSMD above cutoff in both LYZ assays),[1]; LYZ.NS and LYZ.S,multiple validated doses
same,biological potency compared with Bosutinib,[1]; LYZ.NS and LYZ.S mean fold change,more biologically potent
same,Dose.FC.LYZ.S,[2]; 0.10 uM,0.044 log2 fold change
same,Dose.FC.LYZ.S,[2]; 0.20 uM,0.117 log2 fold change
same,Dose.FC.LYZ.S,[2]; 0.40 uM,−0.007 log2 fold change
same,Dose.FC.LYZ.S,[2]; 0.80 uM,0.143 log2 fold change
same,Dose.FC.CTG,[3]; [7],0.322 log2 fold change
same,Dose.FC.CTG,[3]; [8],0.348 log2 fold change
same,Dose.FC.CTG,[3]; [9],0.242 log2 fold change
same,Dose.FC.CTG,[3]; [10],−0.012 log2 fold change
same,Z.LYZ.NS,[4]; dose 0.08 uM,1.703
same,Z.LYZ.NS,[4]; dose 0.40 uM,1.412
same,Z.LYZ.NS,[4]; dose 2.00 uM,0.742
same,Z.LYZ.NS,[4]; dose 10.00 uM,−0.806
same,Dose.FC.LYZ.NS,[4]; [7],0.196 log2 fold change
same,Dose.FC.LYZ.NS,[4]; [8],0.162 log2 fold change
same,Dose.FC.LYZ.NS,[4]; [9],0.085 log2 fold change
same,Dose.FC.LYZ.NS,[4]; [10],−0.093 log2 fold change
same,Dose.FC.CTG,[5]; 0.10 uM,0.092 log2 fold change
same,Dose.FC.CTG,[5]; 0.20 uM,0.122 log2 fold change
same,Dose.FC.CTG,[5]; 0.40 uM,0.141 log2 fold change
same,Dose.FC.CTG,[5]; 0.80 uM,0.233 log2 fold change
same,Dose.FC.LYZ.S,[6]; [7],0.235 log2 fold change
same,Dose.FC.LYZ.S,[6]; [8],0.293 log2 fold change
same,Dose.FC.LYZ.S,[6]; [9],0.033 log2 fold change
same,Dose.FC.LYZ.S,[6]; [10],−0.197 log2 fold change
"N#CC[C@H](C1CCCC1)n1cc(-c2ncnc3[nH]ccc23)cn1 [Ruxolitinib (INCB018424), Ruxolitinib, reference compound]",Dose.FC.LYZ.NS,[1]; 2.50 uM,−0.157 log2 fold change
same,Dose.FC.LYZ.NS,[1]; 5.00 uM,−0.138 log2 fold change
same,Dose.FC.LYZ.NS,[1]; 10.00 uM,−0.084 log2 fold change
same,Dose.FC.LYZ.NS,[1]; 20.00 uM,0.065 log2 fold change
same,Dose.FC.LYZ.S,[2]; 2.50 uM,−0.182 log2 fold change
same,Dose.FC.LYZ.S,[2]; 5.00 uM,−0.217 log2 fold change
same,Dose.FC.LYZ.S,[2]; 10.00 uM,−0.168 log2 fold change
same,Dose.FC.LYZ.S,[2]; 20.00 uM,0.027 log2 fold change
same,Dose.FC.CTG,[3]; [11],0.458 log2 fold change
same,Dose.FC.CTG,[3]; [12],0.363 log2 fold change
same,Dose.FC.CTG,[3]; [13],0.445 log2 fold change
same,Dose.FC.CTG,[3]; [14],0.477 log2 fold change
same,Dose.FC.LYZ.NS,[4]; [11],0.122 log2 fold change
same,Z.LYZ.NS,[4]; dose 0.08 uM,1.066
same,Dose.FC.LYZ.NS,[4]; [12],0.070 log2 fold change
same,Z.LYZ.NS,[4]; dose 0.40 uM,0.611
same,Dose.FC.LYZ.NS,[4]; [13],0.110 log2 fold change
same,Z.LYZ.NS,[4]; dose 2.00 uM,0.954
same,Dose.FC.LYZ.NS,[4]; [14],0.295 log2 fold change
same,Z.LYZ.NS,[4]; dose 10.00 uM,2.569
same,Dose.FC.CTG,[5]; 2.50 uM,−0.014 log2 fold change
same,Dose.FC.CTG,[5]; 5.00 uM,−0.224 log2 fold change
same,Dose.FC.CTG,[5]; 10.00 uM,−0.153 log2 fold change
same,Dose.FC.CTG,[5]; 20.00 uM,0.166 log2 fold change
same,Dose.FC.LYZ.S,[6]; [11],0.150 log2 fold change
same,Dose.FC.LYZ.S,[6]; [12],0.067 log2 fold change
same,Dose.FC.LYZ.S,[6]; [13],0.105 log2 fold change
same,Dose.FC.LYZ.S,[6]; [14],0.317 log2 fold change

# Reference: patent US20220323406A1, “METHODS AND COMPOSITIONS FOR DIFFERENTIATING STEM CELLS” (Massachusetts Institute of Technology, priority 2019, published 2022)
